From US12421253B2 (Mirati Therapeutics, Inc., priority 2020, dated 2025)

Tests used:
[1] = target: T1, KRas^WT (Homo sapiens, UniProt P01116); experiment: KRas binding assay (TR-FRET displacement of Cy5 labelled tracer)
T1 construct: […]; biotin (biotinylated); purchased Accelegan Inc
Procedure: (§6) The ability of a compound to bind to KRas was measured using a TR-FRET displacement assay. […] After a 60-minute incubation at room temperature, the reaction was measured using a BMG LABTECH CLARIO star Plus via TR-FRET. […] The POC values were fit to a 4-parameter IC50 equation and the IC50 value reported.

[2] = target: T2, KRas^G12A (Homo sapiens, UniProt P01116, G12A); experiment: as above
T2 construct: […]; biotin (biotinylated); purchased Accelegan Inc
Procedure: as §6

[3] = target: T3, KRas^G12D (Homo sapiens, UniProt P01116, G12D); experiment: as above
T3 construct: […]; biotin (biotinylated); purchased Accelegan Inc
T3 sequence (P01116 1-169 isoform P01116-2 G12D): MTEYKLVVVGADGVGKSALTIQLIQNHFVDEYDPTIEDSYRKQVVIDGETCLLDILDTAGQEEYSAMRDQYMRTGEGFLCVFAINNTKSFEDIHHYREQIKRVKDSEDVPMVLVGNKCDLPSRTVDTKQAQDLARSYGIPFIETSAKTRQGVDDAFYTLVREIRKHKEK
Procedure: as §6

[4] = target: T4, KRas^G12R (Homo sapiens, UniProt P01116, G12R); experiment: as above
T4 construct: […]; biotin (biotinylated); purchased Accelegan Inc
T4 sequence (P01116 1-169 isoform P01116-2 G12R): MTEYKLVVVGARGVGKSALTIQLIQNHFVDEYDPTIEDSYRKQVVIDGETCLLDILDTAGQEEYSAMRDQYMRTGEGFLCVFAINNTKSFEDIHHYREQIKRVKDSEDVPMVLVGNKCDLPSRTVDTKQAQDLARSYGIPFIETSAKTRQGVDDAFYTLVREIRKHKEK
Procedure: as §6

[5] = target: T5, KRas^G12S (Homo sapiens, UniProt P01116, G12S); experiment: as above
T5 construct: […]; biotin (biotinylated); purchased Accelegan Inc
T5 sequence (P01116 1-169 isoform P01116-2 G12S): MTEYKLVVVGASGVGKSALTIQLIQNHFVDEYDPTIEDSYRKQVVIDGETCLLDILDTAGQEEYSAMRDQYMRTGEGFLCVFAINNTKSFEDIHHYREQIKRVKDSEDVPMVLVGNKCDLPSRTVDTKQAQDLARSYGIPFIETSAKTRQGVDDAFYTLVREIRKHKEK
Procedure: as §6

[6] = target: T6, KRas^G12V (Homo sapiens, UniProt P01116, G12V); experiment: as above
T6 construct: […]; biotin (biotinylated); purchased Accelegan Inc
T6 sequence (P01116 1-169 isoform P01116-2 G12V): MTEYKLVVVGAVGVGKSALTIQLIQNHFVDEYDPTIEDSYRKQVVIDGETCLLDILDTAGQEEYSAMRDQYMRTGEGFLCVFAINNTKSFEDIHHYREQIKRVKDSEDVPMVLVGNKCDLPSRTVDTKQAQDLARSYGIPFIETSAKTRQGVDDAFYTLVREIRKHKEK
Procedure: as §6

[7] = test system: AsPC-1 (G12D) cells, phospho-ERK; experiment: Inhibition of KRas-mediated phosphorylation of ERK (phospho-ERK/GAPDH antibody detection, LI-COR); assay type: cell-based; conditions: Homo sapiens, ASPC1, 3 hours
Procedure: (§1) AsPC-1 (G12D, ATCC CRL-1682), A549 (G12S, ATCC CCL-185), HCT116 (G13D, ATCC CCL-247) cells were grown in DMEM medium supplemented with 10% fetal bovine serum and Penicillin/Streptomycin. NCI-H358 (G12C, ATCC CRL-5807), NCI-H460 (Q61H, ATCC HTB-117), NCI-H727 (G12V, ATCC CRL-5815), MKN1 (WTdep, JCRB JCRB0252), PSN-1 (G12R, ATCC CRM-CRL-3211) cells were grown in RPMI medium supplemented with 10% fetal bovine serum, 10 mM HEPES, 10 mM Sodium Pyruvate, and Penicillin/Streptomycin. Cells were plated in black well clear bottom tissue culture treated 96 well plates (Corning, 3904) at a density of 20,000 cells/well and allowed to attach for 12-14 hours. Diluted compounds were then added in a final concentration of 0.5% DMSO. After 3 hours, 50 μL of 4.0% formaldehyde was added and the plates incubated at room temperature for 20 minutes. The plates were then dumped and permeabilized with 150 μL of ice cold 100% methanol for 10 minutes. Non-specific antibody binding to the plates was blocked using 100 μL Odyssey blocking buffer (LI-COR Biosciences, 927-60010) for 1 hour at room temperature.
(§2) The amount of phospho-ERK was determined using an antibody specific for the phosphorylated form of ERK and compared to the amount of GAPDH. Primary antibodies used for the detection were added as follows: Phospho-ERK (Cell Signaling CS-9101) diluted 1:500 and GAPDH (Millipore MAB374) diluted 1:5000 in Odyssey blocking buffer+0.05% Tween 20. The plates were incubated overnight at 4 C. The plates were washed 3× with 150 uL PBS+0.1% Tween 20.
(§3) Secondary antibodies used to visualize primary antibodies were added as follows: Goat Anti-Rabbit-800 (LI-COR, 926-32211) and Goat Anti-Mouse-680 (LI-COR, 926-68070) diluted 1:800 both in Odyssey blocking buffer+0.05% Tween 20 and were incubated for 1 hour at room temperature. The plates were washed 3× with 150 uL PBS+[…]. Plates were imaged dry on a Li—COR Odyssey CLX plate reader.
(§4) The phospho-ERK (Thr202/Tyr204) signal was normalized to the GAPDH signal for each well and percent of DMSO control values were calculated. IC50 values were generated using a 4-parameter fit of the dose response curve.

[8] = test system: NCI-H460 (Q61H) cells, phospho-ERK; experiment: as above; assay type: cell-based; conditions: Homo sapiens, 3 hours
Procedure: as §1, §2, §3, §4

[9] = test system: NCI-H727 (G12V) cells, phospho-ERK; experiment: as above; assay type: cell-based; conditions: Homo sapiens, 3 hours
Procedure: as §1, §2, §3, §4

[10] = test system: MKN1 cells, pERK; experiment: Inhibition of KRas phosphorylation of ERK (Cisbio HTRF Advanced pERK assay); assay type: cell-based; conditions: Homo sapiens, MKN-1, 3 h, read-out: Inhibition (HTRF IC50 nM) of KRas-mediated Phosphorylation of ERK, MKN1
Summary of the method: (§5)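 Cells seeded at 6,000/well in RPMI with 10% FBS, grown overnight at 37 °C, then exposed 3 h to 10-dose 3-fold compound series from 10 uM (0.8% DMSO final); 0.2 uM trametinib as minimum control. Lysates read for pERK by HTRF after 2 h antibody incubation at room temperature.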

[11] = test system: PSN1 cells, pERK; experiment: as above; assay type: cell-based; conditions: Homo sapiens, PSN1, 3 h, read-out: Inhibition (HTRF IC50 nM) of KRas-mediated Phosphorylation of ERK, PSN1
Summary of the method: as §5

[12] = target: KRas^G12C (Homo sapiens, UniProt P01116, G12C); experiment: biochemical
KRas^G12C, sequence (P01116 1-169 isoform P01116-2 G12C): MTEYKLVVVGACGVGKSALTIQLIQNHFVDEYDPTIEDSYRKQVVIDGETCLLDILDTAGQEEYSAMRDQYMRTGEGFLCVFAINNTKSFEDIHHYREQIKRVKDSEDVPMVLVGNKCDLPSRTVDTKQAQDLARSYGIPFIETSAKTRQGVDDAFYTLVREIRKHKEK
Procedure: as §6

[13] = target: KRas^G13D (Homo sapiens, UniProt P01116, G13D); experiment: biochemical
KRas^G13D, sequence (P01116 1-169 isoform P01116-2 G13D): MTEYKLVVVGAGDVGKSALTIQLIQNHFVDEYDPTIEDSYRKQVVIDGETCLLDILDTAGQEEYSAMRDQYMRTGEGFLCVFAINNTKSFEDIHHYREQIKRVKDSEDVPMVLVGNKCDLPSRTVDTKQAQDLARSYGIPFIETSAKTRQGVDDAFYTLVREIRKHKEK
Procedure: as §6

[14] = target: KRas^Q61H (Homo sapiens, UniProt P01116, Q61H); experiment: biochemical
KRas^Q61H, sequence (P01116 1-169 isoform P01116-2 Q61H): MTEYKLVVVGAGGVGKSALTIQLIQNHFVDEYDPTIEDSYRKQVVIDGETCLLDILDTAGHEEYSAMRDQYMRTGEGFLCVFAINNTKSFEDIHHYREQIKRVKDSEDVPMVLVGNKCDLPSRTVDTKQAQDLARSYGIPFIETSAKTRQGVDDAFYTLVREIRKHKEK
Procedure: as §6

[15] = test system: ASPC1 cells, pERK; experiment: Inhibition of KRas phosphorylation of ERK (Cisbio HTRF Advanced pERK assay); assay type: cell-based; conditions: Homo sapiens, ASPC1, 3 h, AsPC-1 cells, read-out: Inhibition (HTRF IC50 nM) of KRas-mediated Phosphorylation of ERK, AsPC-1
Summary of the method: as §5

[16] = test system: H727 cells, pERK; experiment: as above; assay type: cell-based; conditions: Homo sapiens, NCI-H727, 3 h, read-out: Inhibition (HTRF IC50 nM) of KRas-mediated Phosphorylation of ERK, H727
Summary of the method: as §5

[17] = test system: HCT116 cells, pERK; experiment: as above; assay type: cell-based; conditions: Homo sapiens, HCT-116, 3 hrs, read-out: Inhibition (HTRF IC50 nM) of KRas-mediated Phosphorylation of ERK, HCT116
Summary of the method: as §5

T1 sequence (P01116 1-169 isoform P01116-2): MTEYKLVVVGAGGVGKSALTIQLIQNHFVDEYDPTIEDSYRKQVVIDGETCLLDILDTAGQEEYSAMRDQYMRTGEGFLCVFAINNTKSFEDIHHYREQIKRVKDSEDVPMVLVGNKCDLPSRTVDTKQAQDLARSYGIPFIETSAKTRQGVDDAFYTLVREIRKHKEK
T2 sequence (P01116 1-169 isoform P01116-2 G12A): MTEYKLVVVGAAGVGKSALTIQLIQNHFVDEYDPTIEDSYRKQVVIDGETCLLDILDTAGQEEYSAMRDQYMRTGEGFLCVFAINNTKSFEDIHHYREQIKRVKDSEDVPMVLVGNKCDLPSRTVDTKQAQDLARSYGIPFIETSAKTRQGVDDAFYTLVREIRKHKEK

Row | Compound | IC50 [1] | IC50 [2] | IC50 [3] | IC50 [4] | IC50 [5] | IC50 [6] | IC50 [7] | IC50 [8] | IC50 [9] | IC50 [10] | IC50 [11] | IC50 [12] | IC50 [13] | IC50 [14] | IC50 [15] | IC50 [16] | IC50 [17]
1 | CCc1c(F)ccc2cc(O)cc(N3CCc4c(nc(OC[C@@]56CCCN5C[C@H](F)C6)nc4NCc4c[nH]c5ncccc45)C3)c12 [Example 23, 4-(4-(((1H-pyrrolo[2,3-b]pyridin-3-yl)methyl)amino)-2-(((2R,7aS)-2-fluorohexahydro-1H-pyrrolizin-7a-yl)methoxy)-5,6-dihydropyrido[3,4-d]pyrimidin-7(8H)-yl)-5-ethyl-6-fluoronaphthalen-2-ol] | 36 nM | 9 nM | 69 nM | 4 nM | 12 nM | 5 nM | 3850 nM | 1770 nM | 2420 nM | 53 nM | ≥ 10000 nM | 7 nM | 42 nM | 38 nM |  |  | 
2 | CCc1c(F)ccc2cc(O)cc(N3CCc4c(nc(OC[C@@]56CCCN5C[C@H](F)C6)nc4N4CCOCC(O)C4)C3)c12 (stereo partly drawn) [Example 29, 4-(7-(8-ethyl-7-fluoro-3-hydroxynaphthalen-1-yl)-2-(((2R,7aS)-2-fluorohexahydro-1H-pyrrolizin-7a-yl)methoxy)-5,6,7,8-tetrahydropyrido[3,4-d]pyrimidin-4-yl)-1,4-oxazepan-6-ol] |  |  | ≤ 2 nM | ≤ 2 nM |  | ≤ 2 nM | 509 nM | 285 nM | 542 nM | 20 nM | 5810 nM |  |  |  | 318 nM | 906 nM | 1310 nM
3 | CCc1c(F)ccc2cc(O)cc(N3CCc4c(nc(OC[C@@]56CCCN5C[C@H](F)C6)nc4N4CCCC(c5ncn[nH]5)C4)C3)c12 (stereo partly drawn) [Example 19, 4-(4-(3-(1H-1,2,4-triazol-5-yl)piperidin-1-yl)-2-(((2R,7aS)-2-fluorotetrahydro-1H-pyrrolizin-7a(5H)-yl)methoxy)-5,8-dihydropyrido[3,4-d]pyrimidin-7(6H)-yl)-5-ethyl-6-fluoronaphthalen-2-ol] | 8 nM | 4 nM | 26 nM | 4 nM | 9 nM | 6 nM | 2680 nM | 1290 nM | 2930 nM | 389 nM | ≥ 10000 nM | 5 nM | 11 nM | 9 nM |  |  | 
4 | CCc1c(F)ccc2cc(O)cc(N3CCc4c(nc(OC[C@@]56CCCN5C[C@H](F)C6)nc4N4CCCCC(S(C)(=O)=O)C4)C3)c12 (stereo partly drawn) [Example 28, 5-ethyl-6-fluoro-4-(2-(((2R,7aS)-2-fluorohexahydro-1H-pyrrolizin-7a-yl)methoxy)-4-(3-(methylsulfonyl)azepan-1-yl)-5,6-dihydropyrido[3,4-d]pyrimidin-7(8H)-yl)naphthalen-2-ol] |  |  | ≤ 2 nM | ≤ 2 nM |  | ≤ 2 nM | 1010 nM | 494 nM | 987 nM | 36 nM | ≥ 10000 nM |  |  |  |  |  | 
5 | CCc1c(F)ccc2cc(O)cc(N3CCc4c(nc(OC[C@@]56CCCN5C[C@H](F)C6)nc4N4CCC(O)C(CO)CC4)C3)c12 (stereo partly drawn) [Example 33, 1-(7-(8-ethyl-7-fluoro-3-hydroxynaphthalen-1-yl)-2-(((2R,7aS)-2-fluorohexahydro-1H-pyrrolizin-7a-yl)methoxy)-5,6,7,8-tetrahydropyrido[3,4-d]pyrimidin-4-yl)-5-(hydroxymethyl)azepan-4-ol] |  |  | 5 nM | ≤ 2 nM |  | ≤ 2 nM | 1360 nM | 398 nM | 1860 nM | 11 nM | ≥ 10000 nM |  |  |  |  |  | 
6 | CCc1c(F)ccc2cc(O)cc(N3CCc4c(nc(OC[C@@]56CCCN5C[C@H](F)C6)nc4N4CCCC(n5cccn5)C4)C3)c12 (stereo partly drawn) [Example 67, 4-(4-(3-(1H-pyrazol-1-yl)piperidin-1-yl)-2-(((2R,7aS)-2-fluorohexahydro-1H-pyrrolizin-7a-yl)methoxy)-5,6-dihydropyrido[3,4-d]pyrimidin-7(8H)-yl)-5-ethyl-6-fluoronaphthalen-2-ol] |  |  | 11 nM | ≤ 2 nM |  | 7 nM | 1570 nM | 225 nM | 876 nM | 112 nM | ≥ 10000 nM |  |  |  |  |  | 
7 | CCc1c(F)ccc2cc(O)cc(N3CCc4c(nc(OC[C@@]56CCCN5C[C@H](F)C6)nc4N4CCCC5(CC(=O)N5)C4)C3)c12 (stereo partly drawn) [Example 21, 6-(7-(8-ethyl-7-fluoro-3-hydroxynaphthalen-1-yl)-2-(((2R,7aS)-2-fluorohexahydro-1H-pyrrolizin-7a-yl)methoxy)-5,6,7,8-tetrahydropyrido[3,4-d]pyrimidin-4-yl)-1,6-diazaspiro[3.5]nonan-2-one] |  |  | ≤ 2 nM | ≤ 2 nM |  | ≤ 2 nM | 204 nM | 202 nM | 466 nM | 9 nM | 646 nM |  |  |  |  |  | 
8 | CCc1c(F)ccc2cc(O)cc(N3CCc4c(nc(OC[C@@]56CCCN5C[C@H](F)C6)nc4N4CCCC(O)C4)C3)c12 (stereo partly drawn) [Example 27, 1-(7-(8-ethyl-7-fluoro-3-hydroxynaphthalen-1-yl)-2-(((2R,7aS)-2-fluorohexahydro-1H-pyrrolizin-7a-yl)methoxy)-5,6,7,8-tetrahydropyrido[3,4-d]pyrimidin-4-yl)piperidin-3-ol] |  |  | ≤ 2 nM | ≤ 2 nM |  | ≤ 2 nM | 808 nM | 282 nM | 549 nM | 9 nM | 2720 nM |  |  |  |  |  | 
9 | CCc1c(F)ccc2cc(O)cc(N3CCc4c(nc(OC[C@@]56CCCN5C[C@H](F)C6)nc4NCc4ccc5nncn5c4)C3)c12 [Example 31, 4-(4-(([1,2,4]triazolo[4,3-a]pyridin-6-ylmethyl)amino)-2-(((2R,7aS)-2-fluorohexahydro-1H-pyrrolizin-7a-yl)methoxy)-5,6-dihydropyrido[3,4-d]pyrimidin-7(8H)-yl)-5-ethyl-6-fluoronaphthalen-2-ol] |  |  | 31 nM | ≤ 2 nM |  | ≤ 2 nM | 3540 nM | > 10000 nM | 3320 nM | 637 nM | ≥ 10000 nM |  |  |  |  |  | 
